According to PubChem BioAssay (NCI):
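Assay format: 96-well plates, 48-hour exposure. Abbreviation: GI50, concentration required for 50% inhibition of growth. TGI denotes the concentration required for complete inhibition of growth.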

Assays:
Experiment in all cases: NCI anticancer screen, dose series, 48 h
[1] = test system: KM12 colon
[2] = test system: COLO 205 colon
[3] = test system: M14 melanoma
[4] = test system: SK-MEL-2 melanoma
[5] = test system: RXF 393 renal
[6] = test system: SW-620 colon
[7] = test system: IGROV1 ovarian
[8] = test system: HCC-2998 colon
[9] = test system: SNB-19 CNS
[10] = test system: BT-549 breast
[11] = test system: TK-10 renal
[12] = test system: SF-268 CNS
[13] = test system: LOX IMVI melanoma
[14] = test system: A549 NSCLC
[15] = test system: HCT-15 colon
[16] = test system: SK-MEL-5 melanoma
[17] = test system: NCI-H522 lung
[18] = test system: CCRF-CEM leukemia
[19] = test system: OVCAR-8 ovarian
[20] = test system: K-562 leukemia
[21] = test system: HOP-92 NSCLC
[22] = test system: MALME-3M melanoma
[23] = test system: UACC-257 melanoma
[24] = test system: NCI-H23 lung
[25] = test system: NCI/ADR-RES ovarian
[26] = test system: SF-295 CNS
[27] = test system: OVCAR-4 ovarian
[28] = test system: UO-31 renal
[29] = test system: DU-145 prostate

COC(=O)C(C)NP(=O)(OCc1ccc(Cn2cnc3c(N)ncnc32)cc1)Oc1ccccc1 (configuration not stated)
GI50 [1]: 25.2 µM
TGI [1]: > 96.1 µM
GI50 [2]: > 91.6 µM
TGI [2]: > 100 µM
GI50 [3]: 55.4 µM
TGI [3]: > 100 µM
GI50 [4]: > 73.9 µM
TGI [4]: > 100 µM
GI50 [5]: 81.5 µM
TGI [5]: > 100 µM
GI50 [6]: > 83.5 µM
TGI [6]: > 100 µM
GI50 [7]: 39.1 µM
TGI [7]: > 100 µM
GI50 [8]: 27.7 µM
TGI [8]: 84.4 µM
GI50 [9]: > 64.2 µM
TGI [9]: > 100 µM
GI50 [10]: 24.2 µM
TGI [10]: 72.5 µM
GI50 [11]: > 100 µM
TGI [11]: > 100 µM
GI50 [12]: 36.9 µM
TGI [12]: > 100 µM
GI50 [13]: 21.4 µM
TGI [13]: 53.8 µM
GI50 [14]: > 84.2 µM
TGI [14]: > 100 µM
GI50 [15]: > 100 µM
TGI [15]: > 100 µM
GI50 [16]: 6.39 µM
TGI [16]: 33.4 µM
GI50 [17]: 28.4 µM
TGI [17]: > 69 µM
GI50 [18]: 50 µM
TGI [18]: > 100 µM
GI50 [19]: 76.8 µM
TGI [19]: > 100 µM
GI50 [20]: > 93.1 µM
TGI [20]: > 100 µM
GI50 [21]: 29.8 µM
TGI [21]: > 100 µM
GI50 [22]: 20.8 µM
TGI [22]: 57 µM
GI50 [23]: > 100 µM
TGI [23]: > 100 µM
GI50 [24]: 36.5 µM
TGI [24]: > 100 µM
GI50 [25]: > 100 µM
TGI [25]: > 100 µM
GI50 [26]: > 78.9 µM
TGI [26]: > 100 µM
GI50 [27]: > 100 µM
TGI [27]: > 100 µM
GI50 [28]: > 100 µM
TGI [28]: > 100 µM
GI50 [29]: > 100 µM
